pIC50: −log10 of the molar value. Counter-ions that a name gives are not always drawn.
How the values were obtained:
[1] = biological target: T1, hOAT (Homo sapiens, UniProt P04181); experiment: Time-dependent inactivation of hOAT; format: biochemical
T1 construct: made in house; host or cells: E. coli BL21(DE3)
T1 sequence (P04181 26-439): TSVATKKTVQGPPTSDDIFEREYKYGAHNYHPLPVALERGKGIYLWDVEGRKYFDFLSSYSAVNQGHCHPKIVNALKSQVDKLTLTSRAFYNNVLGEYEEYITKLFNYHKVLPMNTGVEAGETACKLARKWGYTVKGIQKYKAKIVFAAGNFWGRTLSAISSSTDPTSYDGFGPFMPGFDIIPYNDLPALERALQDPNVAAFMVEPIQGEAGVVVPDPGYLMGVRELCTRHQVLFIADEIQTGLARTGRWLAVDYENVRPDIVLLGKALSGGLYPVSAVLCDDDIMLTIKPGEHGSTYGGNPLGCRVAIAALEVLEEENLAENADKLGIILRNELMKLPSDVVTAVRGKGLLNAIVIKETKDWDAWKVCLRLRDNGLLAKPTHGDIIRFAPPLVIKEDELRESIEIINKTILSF
Procedure: All reagents for enzyme purification and assays were purchased from Sigma-Aldrich (St. Louis, MO, USA). Human OAT (0.672 mg/mL) was purified from E. coli BL21 (DE3) cells following the procedure described above, and coenzyme human recombinant pyrroline 5-carboxylate reductase (PYCRI) were expressed, grown, and purified according to a literature procedure.^4 γ-Aminobutyric acid aminotransferase (GABA-AT, 0.4 mg/mL) was purified from pig brain following a procedure described previously^5, and coenzyme succinic semialdehyde dehydrogenase (SSDH) was purified from GABase (catalog No. G7509-25UN, Sigma-Aldrich), a commercially available mixture of SSDH and GABA-AT, using a known procedure.^6 Commercially available L-aspartate aminotransferase (Asp-AT) from the porcine heart (catalog No. G2751-2KU, Sigma-Aldrich) and the desired assay coenzyme malic dehydrogenase from porcine (catalog No. M2634-5KU, Sigma-Aldrich), and L-alanine aminotransferase (Ala-AT) from the porcine heart (catalog No. G8255-200UN, Sigma-Aldrich) and the desired assay coenzyme lactate dehydrogenase from porcine (catalog No. 427211-50KU, Sigma-Aldrich) were used directly without further purification. All the enzyme assays for the inactivation, partition ratio, and dialysis experiment were recorded on a Synergy H1 hybrid multimode microplate reader (Biotek, USA) with transparent 96-well plates.
Time-dependent inactivation against hOAT was performed using an optimized procedure published previously.^7 10 μL of hOAT (0.025 mg/mL) was preincubated with 10 μL of various concentrations of tested compounds in 100 mM potassium pyrophosphate buffer (pH 8.0, 5 mM α-ketoglutarate, and 5 mM β-mercaptoethanol) at 25° C. in a 96-well plate. At time intervals, 80 μL of assay solution containing PYCR^1 (0.5 μg), 1 mM NADH, and 25 mM L-ornithine in the abovementioned potassium pyrophosphate buffer were added to the incubation mixture and assayed for OAT activity at 37° C. for 30 min. The change in UV absorbance at 340 nm at 37° C. based on the conversion of NADH to NAD was monitored by a microplate reader. All assays were performed in duplicate, and the remaining OAT activity at each preincubation time at each inhibitor concentration was averaged. The natural logarithm of the percentage of the remaining OAT activity was plotted against the preincubation time at each inhibitor concentration to obtain the kobs (slope) value for each concentration. The kobs value is the rate constant describing the inactivation at each inhibitor concentration. kobs is replotted against the inhibitor concentration using nonlinear regression analysis using GraphPad Prism 8.0. K1 and kinact values were estimated from equation (1)
where kinact is the maximal rate of inactivation, K1 is the inhibitor concentration required for half-maximal inactivation, and [I] is the preincubation concentration of the tested compound.

[2] = Aqueous solubility; format: physicochemical; conditions: aqueous medium (not further specified); HCl salt
[3] = Liver microsomal stability, human; format: in vitro ADME
[4] = Plasma protein binding, mouse; format: in vitro ADME
[5] = biological target: hERG (Homo sapiens, UniProt Q12809); experiment: hERG test; format: in vitro ADME
Chain of hERG (Q12809 whole entry): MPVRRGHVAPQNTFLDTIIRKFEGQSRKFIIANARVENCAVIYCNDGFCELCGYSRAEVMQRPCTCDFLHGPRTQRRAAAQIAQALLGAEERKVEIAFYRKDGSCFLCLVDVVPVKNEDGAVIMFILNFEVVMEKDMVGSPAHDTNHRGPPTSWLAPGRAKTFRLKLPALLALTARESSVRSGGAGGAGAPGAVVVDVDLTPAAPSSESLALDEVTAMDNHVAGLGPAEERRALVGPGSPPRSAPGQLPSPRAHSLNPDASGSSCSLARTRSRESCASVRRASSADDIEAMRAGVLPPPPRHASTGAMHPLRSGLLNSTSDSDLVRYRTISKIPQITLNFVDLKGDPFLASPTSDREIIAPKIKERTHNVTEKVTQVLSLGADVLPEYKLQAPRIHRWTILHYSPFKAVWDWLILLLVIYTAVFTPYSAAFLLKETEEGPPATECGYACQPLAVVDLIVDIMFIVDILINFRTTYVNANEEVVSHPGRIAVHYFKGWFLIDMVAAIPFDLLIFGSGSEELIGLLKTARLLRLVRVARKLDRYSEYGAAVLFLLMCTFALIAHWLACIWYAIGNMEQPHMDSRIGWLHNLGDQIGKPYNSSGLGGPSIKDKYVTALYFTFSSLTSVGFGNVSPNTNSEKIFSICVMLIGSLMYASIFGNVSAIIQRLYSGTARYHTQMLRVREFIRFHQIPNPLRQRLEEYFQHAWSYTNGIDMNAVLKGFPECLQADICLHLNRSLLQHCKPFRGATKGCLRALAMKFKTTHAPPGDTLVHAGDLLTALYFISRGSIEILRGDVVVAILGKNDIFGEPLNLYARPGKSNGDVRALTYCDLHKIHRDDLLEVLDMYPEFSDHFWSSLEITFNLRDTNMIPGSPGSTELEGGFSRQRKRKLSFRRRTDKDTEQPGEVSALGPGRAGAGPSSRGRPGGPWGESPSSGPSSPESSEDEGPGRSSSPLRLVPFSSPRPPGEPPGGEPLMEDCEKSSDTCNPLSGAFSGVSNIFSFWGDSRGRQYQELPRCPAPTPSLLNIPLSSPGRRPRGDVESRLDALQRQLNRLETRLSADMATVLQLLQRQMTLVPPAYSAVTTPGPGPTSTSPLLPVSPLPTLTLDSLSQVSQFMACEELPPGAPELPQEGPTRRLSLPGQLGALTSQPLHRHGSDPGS

[6] = biological target: CYP 2D6 (Homo sapiens, UniProt P10635); experiment: CYP inhibition 2D6; format: in vitro ADME
Chain of CYP 2D6 (P10635 whole entry): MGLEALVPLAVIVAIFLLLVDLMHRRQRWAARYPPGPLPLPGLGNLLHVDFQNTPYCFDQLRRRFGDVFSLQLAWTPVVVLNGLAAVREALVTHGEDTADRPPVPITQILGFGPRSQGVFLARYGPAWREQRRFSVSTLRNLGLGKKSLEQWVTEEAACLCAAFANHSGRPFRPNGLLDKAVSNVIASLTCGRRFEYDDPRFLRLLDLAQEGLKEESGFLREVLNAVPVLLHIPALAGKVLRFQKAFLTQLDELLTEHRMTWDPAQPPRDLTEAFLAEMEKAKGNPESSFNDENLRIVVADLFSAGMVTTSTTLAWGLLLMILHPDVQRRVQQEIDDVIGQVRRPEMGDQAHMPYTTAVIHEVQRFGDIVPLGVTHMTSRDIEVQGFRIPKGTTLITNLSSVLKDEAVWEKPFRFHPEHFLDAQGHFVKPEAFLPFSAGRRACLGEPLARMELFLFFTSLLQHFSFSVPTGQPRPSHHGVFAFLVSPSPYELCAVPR

[7] = biological target: CYP 3A4 (Homo sapiens, UniProt P08684); experiment: CYP inhibition 3A4; format: in vitro ADME
Chain of CYP 3A4 (P08684 whole entry): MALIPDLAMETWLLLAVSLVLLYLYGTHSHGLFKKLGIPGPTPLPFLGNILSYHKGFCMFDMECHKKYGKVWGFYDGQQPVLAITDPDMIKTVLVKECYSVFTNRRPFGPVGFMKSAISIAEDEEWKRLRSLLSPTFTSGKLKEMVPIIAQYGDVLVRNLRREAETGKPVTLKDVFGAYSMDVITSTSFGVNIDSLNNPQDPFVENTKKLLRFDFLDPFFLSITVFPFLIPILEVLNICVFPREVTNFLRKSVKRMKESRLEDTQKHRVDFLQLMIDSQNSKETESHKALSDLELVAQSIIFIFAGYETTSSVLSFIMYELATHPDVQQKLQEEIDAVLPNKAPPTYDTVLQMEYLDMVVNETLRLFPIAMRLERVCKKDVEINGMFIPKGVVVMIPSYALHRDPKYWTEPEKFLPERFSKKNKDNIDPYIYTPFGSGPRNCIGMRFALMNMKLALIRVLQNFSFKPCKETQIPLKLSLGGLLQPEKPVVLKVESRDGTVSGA

[8] = Plasma PK profiles; format: in vivo

Q: Which “improvement of inactivation efficiency (kinact/K1) relative to parent compound 4” value [1] does the source give for N[C@H]1C=C(C(=O)O)CC1(F)F [SS-1-148, (S)-3-Amino-4,4-difluorocyclopent-1-enecarboxylic acid hydrochloric acid salt] here?
A: 444 fold

Q: And the “type of inhibition on hOAT” value [1]?
A: irreversible inhibitor

Q: What about the kinact/KI ([1]; inactivation efficiency) of the same compound?
A: 22.2 M⁻¹ s⁻¹

Q: And the kinact ([1]; mean and standard error)?
A: 0.00133 s⁻¹

Q: And the solubility [2]?
A: > 50 mM

Q: What about the “Liver microsomal stability (t1/2) Human” value [3] of the same compound?
A: N/C

Q: And the fraction unbound [4]?
A: 1

Q: What about the pIC50 [5] of the same compound?
A: < 4.52

Q: And the IC50 [6]?
A: > 100 µM

Q: What about the IC50 [7] of the same compound?
A: > 100 µM

Q: What about the AUC(0-inf) ([8]; IV (5 mg/kg)) of the same compound?
A: 1160 ng·h/mL

Q: And the AUC(0-t) ([8]; IV (5 mg/kg))?
A: 1150 ng·h/mL

Q: And the Cmax ([8]; IV (5 mg/kg))?
A: 4680 ng/mL

Q: What about the T1/2 ([8]; IV (5 mg/kg)) of the same compound?
A: 0.43 H

Q: And the clearance ([8]; IV (5 mg/kg))?
A: 72 mL/min/kg

Q: What about the Vd ([8]; IV (5 mg/kg), read-out: Vss) of the same compound?
A: 1.01 L/kg

Q: And the AUC(0-inf) ([8]; PO (30 mg/kg))?
A: 8530 ng·h/mL

Q: And the AUC(0-t) ([8]; PO (30 mg/kg))?
A: 8440 ng·h/mL

Q: And the Cmax ([8]; PO (30 mg/kg))?
A: 8080 ng/mL

Q: What about the Tmax ([8]; PO (30 mg/kg)) of the same compound?
A: 15 min

Q: And the bioavailability ([8]; PO (30 mg/kg))?
A: ~100%

Reference: patent publication US20240174596A1 (Northwestern University, priority 2021, published 2024)
